Assays:
[1] = tested on: KBM7 cells carrying an out-of-frame tdTomato reporter; assay: Effect of carbohydrate supplements on Cas9/sgRNA transduction (tdTomato reporter); assay type: cell-based; conditions: carbohydrate 0.8% w/v, 40 minutes, 327 mM NaCl, 200 mM GABA, read two days after
Method: (§1) KBM7 cells carrying an out-of-frame tdTomato reporter were transduced for 40 minutes with recombinant Cas9 protein and sgRNA targeting the out-of-frame region in the tdTomato reporter. Transductions were carried out in 1× iTOP transduction buffer, supplemented with 327 mM NaCl and 200 mM GABA. Indicated carbohydrates were added at 0.8% w/v final concentration. Two days after transduction, tdTomato fluorescence was determined by flow cytometry analysis.
as §1, with “The effect of various carbohydrates on transduction efficiency was tested in the iTOP buffer. KBM7” for “KBM7”, “carbohydrates (sorbitol, lactulose, sucrose, trehalose and myo-inositol)” for “carbohydrates”, “analysis. Higher levels of tdTomato fluorescence were indicative of greater transduction efficiency.” for “analysis.”

[2] = 700 mOsm/Kg, non-salt compound alone; previously tested (WO2015/028969); cited from earlier work
[3] = tested on: MEFs; assay: BrdU incorporation 24 hrs after beta-lactamase transduction; assay type: cell-based, mouse; conditions: see FIGS. 6A-6D
Method: Third column: Relative β-lactamase protein transduction activity; Fourth column: Relative BrdU incorporation 24 hrs after β-lactamase transduction. MEFs were transduced for 3 hours with 1 μM β-lactamase protein at a NaCl adjusted osmolality of 700 mOsm/Kg in transduction buffer containing 30 mM of Glycerol and 15 mM of Glycine and 25 mM of the indicated transduction compounds. β-lactamase incorporation of the reference compound (NDSB201, #01) was set at 100%. Open circles indicate relative BrdU incorporation by the transduced cells. BrdU incorporation of untransduced cells was set at 100% and BrdU incorporation of mitomycin C-treated cells was set at 0%.

[4] = tested on: sodium-hydrogen antiporter (Nhe) proteins; assay: Inhibition of protein transduction by Na+/H+ exchange inhibitors; assay type: cell-based
Description: Without wishing to be bound by theory, the inventors hypothesise that activation of such Nhe transporters leads to activation of the macropinocytosis pathway, which is the first step in the transduction process. Thus, in some embodiments, the salt is any salt able to bind to and/or activate a sodium/hydrogen (Na+/H+) transporter, such as an Nhe transporter, for example an Nhe1 transporter. Nhe1 is a ubiquitous membrane-bound enzyme involved in volume- and pH-regulation of vertebrate cells.

Compound	transduction efficiency (tdTomato fluorescence, in words) [1]	induction of protein transduction [2]	further results
OC[C@H]1O[C@@H](O[C@@H]2[C@@H](CO)OC(O)(CO)[C@H]2O)[C@H](O)[C@@H](O)[C@H]1O (mixture of isomers) [lactulose]	closely followed	failed to induce protein transduction	
NCCCC(=O)O [#20]			cell viability / proliferation / survival (in words) [3]: particularly good cell survival rates
CN(C)c1nc(N)c(C(=O)N=C(N)N)nc1Cl [DMA]			inhibition of protein transduction [4]: strongly inhibited
CCN(c1nc(N)c(C(=O)NC(=N)N)nc1Cl)C(C)C [EIPA]			inhibition of protein transduction [4]: strongly inhibited
OC[C@@H](O)[C@@H](O)[C@H](O)[C@H](O)CO [mannitol]		failed to induce protein transduction	
O[C@H]1[C@H](O)[C@@H](O)[C@H](O)[C@@H](O)[C@H]1O [myo-inositol]	closely followed		
OC[C@@H](O)[C@@H](O)[C@H](O)[C@@H](O)CO [sorbitol]	greatest improvement	failed to induce protein transduction	
OC[C@H]1O[C@@](CO)(O[C@H]2O[C@H](CO)[C@@H](O)[C@H](O)[C@H]2O)[C@@H](O)[C@@H]1O [sucrose]	improve transduction efficiency	failed to induce protein transduction	
OC[C@H]1O[C@H](O[C@H]2O[C@H](CO)[C@@H](O)[C@H](O)[C@H]2O)[C@H](O)[C@@H](O)[C@@H]1O [trehalose]	greatest improvement		
